# Measurements from US9670231B2, “Fused tricyclic amide compounds as multiple kinase inhibitors” (BEIGENE, LTD., priority 2013, dated 2017).
# Read-outs that look alike come from different tables or passages of the source.
# Experiments:
# Format in all cases: biochemical
# [1] = target: B-Raf (V600E) (Homo sapiens (Human), UniProt P15056, V600E); assay: Raf IC50 assay, TR-FRET, B-Raf (V600E); conditions: 0.1 mM ATP; read-out: IC50 BRAF-V600E
# [2] = target: C-Raf (Y340D/Y341D) (Homo sapiens (Human), UniProt P04049, Y340D/Y341D); assay: Raf IC50 assay, TR-FRET, C-Raf (Y340D/Y341D); conditions: 0.1 mM ATP
# Sequence of C-Raf (Y340D/Y341D) (P04049 whole entry Y340D/Y341D): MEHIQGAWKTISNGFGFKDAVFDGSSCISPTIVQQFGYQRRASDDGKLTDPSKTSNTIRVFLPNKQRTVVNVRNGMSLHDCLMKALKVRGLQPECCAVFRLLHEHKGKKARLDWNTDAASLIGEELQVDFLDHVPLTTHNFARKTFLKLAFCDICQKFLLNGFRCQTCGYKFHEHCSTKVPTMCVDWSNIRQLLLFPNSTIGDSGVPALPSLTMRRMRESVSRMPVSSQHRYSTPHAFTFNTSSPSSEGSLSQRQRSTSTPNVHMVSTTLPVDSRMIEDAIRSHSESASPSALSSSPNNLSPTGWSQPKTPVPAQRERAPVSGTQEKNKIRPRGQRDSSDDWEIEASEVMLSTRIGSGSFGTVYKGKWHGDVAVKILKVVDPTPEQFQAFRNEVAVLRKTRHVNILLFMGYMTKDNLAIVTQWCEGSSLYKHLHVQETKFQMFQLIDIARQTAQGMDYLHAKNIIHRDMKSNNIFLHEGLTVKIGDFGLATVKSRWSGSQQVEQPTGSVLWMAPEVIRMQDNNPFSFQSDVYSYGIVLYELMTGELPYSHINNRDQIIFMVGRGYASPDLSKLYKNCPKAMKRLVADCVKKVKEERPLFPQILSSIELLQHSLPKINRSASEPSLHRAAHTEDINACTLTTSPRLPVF
# Procedure: Compounds disclosed herein were tested against B-Raf (V600E) (PV3849, from Invitrogen) or C-Raf (Y340D/Y341D) (PV3805, from Invitrogen) in a time-resolved fluorescence energy transfer assay. The assay was carried out in reactions (10 μL) containing 0.0625 nM B-Raf or 0.5 nM C-Raf, 25 mM Tris pH7.4, 10 mM MgCl2, 0.5 mM EGTA, 0.5 mM Na3VO4, 5 mM beta-glycerophosphate, 0.01% Triton X-100, 2.5 mM DTT, 0.1% BSA, 0.1 mM ATP, 13.7 nM GST-tagged MEK1 (Full-length protein with K97R mutation, recombinant protein purified from bacterial expression system) and 0-5 μM compounds disclosed herein (final concentration of 1% DMSO). The enzyme was incubated with the compounds disclosed herein at room temperature for 60 minutes and the reactions were initiated by the addition of ATP and GST-MEK1. After reaction at room temperature for 60 minutes, an equal volume of stop/detection solution was added according to the manufacture's instruction (CisBio Bioassays). The stop/detection solution contained Eu^3+ cryptate-conjugated anti-phospho MEK1/2 (Ser217/221) rabbit polyclonal antibody and d2-conjugated anti-GST mouse monoclonal antibody in buffer containing 25 mM Tris pH7.4, 400 mM KF, 50 mM EDTA, 0.01% BSA and 0.01% Triton X-100. Plates were sealed and incubated at room temperature for 2 hours, and the TR-FRET signals (ratio of fluorescence emission at 665 nm over emission at 620 nm with excitation at 337 nm wavelength) were recorded on a PHERAstar FS plate reader (BMG Labtech). Phosphorylation of MEK1 led to the binding of anti-phospho-MEK1/2 antibody to GST-MEK1 protein that place fluorescent donor (Eu^3+ crypate) in close proximity to the accepter d2 on the anti-GST antibody, thus resulting in a high degree of fluorescence resonance energy transfer from the donor fluorophore (at 620 nm) to the acceptor fluorophore (at 665 nm). […] The IC50 for each compound was derived from fitting the dose-response % inhibition data to the four-parameter logistic model by Graphpad Prism software.
# [3] = target: wild type B-Raf (Homo sapiens (Human), UniProt P15056); assay: WT BRaf IC50 assay, TR-FRET
# Sequence of wild type B-Raf (P15056 whole entry): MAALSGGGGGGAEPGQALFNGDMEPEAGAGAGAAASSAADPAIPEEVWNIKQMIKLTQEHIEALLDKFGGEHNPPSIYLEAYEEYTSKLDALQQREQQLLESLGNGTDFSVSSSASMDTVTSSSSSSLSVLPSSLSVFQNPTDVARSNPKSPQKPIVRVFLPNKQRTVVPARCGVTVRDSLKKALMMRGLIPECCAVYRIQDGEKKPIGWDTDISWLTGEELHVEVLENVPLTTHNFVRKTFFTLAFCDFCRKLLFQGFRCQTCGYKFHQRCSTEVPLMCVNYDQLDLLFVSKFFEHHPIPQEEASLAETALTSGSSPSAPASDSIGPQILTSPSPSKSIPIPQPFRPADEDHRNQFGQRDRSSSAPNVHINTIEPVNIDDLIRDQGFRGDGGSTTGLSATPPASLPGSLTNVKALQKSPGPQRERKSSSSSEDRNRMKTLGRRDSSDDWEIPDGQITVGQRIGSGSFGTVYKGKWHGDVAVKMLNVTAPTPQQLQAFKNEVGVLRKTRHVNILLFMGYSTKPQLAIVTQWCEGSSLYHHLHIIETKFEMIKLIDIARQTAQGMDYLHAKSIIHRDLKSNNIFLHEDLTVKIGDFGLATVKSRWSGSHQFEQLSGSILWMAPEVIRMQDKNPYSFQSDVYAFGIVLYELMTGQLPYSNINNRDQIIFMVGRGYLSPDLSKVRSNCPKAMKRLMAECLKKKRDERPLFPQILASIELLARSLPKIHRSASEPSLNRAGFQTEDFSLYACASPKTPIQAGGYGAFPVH
# Procedure: WT BRaf IC50 Assay Protocol
# Compounds disclosed herein were tested against wild type B-Raf (PV3848, from Invitrogen) in a time-resolved fluorescence energy transfer assay. […] The enzyme was incubated with the compounds disclosed herein at room temperature for 120 minutes and the reactions were initiated by the addition of ATP and GST-MEK1. After incubating at room temperature for 60 minutes, an equal volume of stop buffer containing 25 mM Tris pH7.4, 400 mM KF, 50 mM EDTA, 0.1% BSA, 0.01% Triton X-100, 1 test of Eu3+Cryptate-conjugated rabbit polyclonal antibody anti-Phospho MEK1/2 (Ser217/221) and 1 test of d2-conjugated mouse monoclonal antibody anti-glutathione S-transferase was added to stop the reactions. Plates were sealed and incubated at room temperature for 1.5 hours, and then the TR-FRET signals were read on BMG PHERAstar FS instrument. The IC50 for each compound was calculated by non linear regression by Graphpad Prism software.
# [4] = target: WT EGFR kinase domain (Homo sapiens (Human), UniProt P00533); assay: EGFR enzymatic assay, TR-FRET, WT EGFR
# Sequence of WT EGFR kinase domain (P00533 669-1210): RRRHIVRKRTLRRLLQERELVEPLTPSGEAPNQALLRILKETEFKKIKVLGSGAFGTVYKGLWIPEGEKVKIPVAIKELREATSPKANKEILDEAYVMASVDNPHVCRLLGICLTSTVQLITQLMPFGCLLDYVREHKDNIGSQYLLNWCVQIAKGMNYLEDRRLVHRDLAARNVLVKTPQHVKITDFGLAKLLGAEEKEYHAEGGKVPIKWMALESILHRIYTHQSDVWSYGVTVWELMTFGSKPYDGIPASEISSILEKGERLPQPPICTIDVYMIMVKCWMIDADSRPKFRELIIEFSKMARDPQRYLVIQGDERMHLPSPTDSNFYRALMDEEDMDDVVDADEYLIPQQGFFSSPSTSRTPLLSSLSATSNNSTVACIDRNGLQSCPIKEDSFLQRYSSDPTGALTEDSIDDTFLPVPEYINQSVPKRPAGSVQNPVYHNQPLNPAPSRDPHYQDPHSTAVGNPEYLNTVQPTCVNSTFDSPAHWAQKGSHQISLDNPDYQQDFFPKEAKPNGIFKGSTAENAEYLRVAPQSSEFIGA
# [5] = target: EGFR L858R kinase domain (Homo sapiens (Human), UniProt P00533, L858R); assay: EGFR enzymatic assay, TR-FRET, EGFR L858R
# Sequence of EGFR L858R kinase domain (P00533 669-1210 L858R): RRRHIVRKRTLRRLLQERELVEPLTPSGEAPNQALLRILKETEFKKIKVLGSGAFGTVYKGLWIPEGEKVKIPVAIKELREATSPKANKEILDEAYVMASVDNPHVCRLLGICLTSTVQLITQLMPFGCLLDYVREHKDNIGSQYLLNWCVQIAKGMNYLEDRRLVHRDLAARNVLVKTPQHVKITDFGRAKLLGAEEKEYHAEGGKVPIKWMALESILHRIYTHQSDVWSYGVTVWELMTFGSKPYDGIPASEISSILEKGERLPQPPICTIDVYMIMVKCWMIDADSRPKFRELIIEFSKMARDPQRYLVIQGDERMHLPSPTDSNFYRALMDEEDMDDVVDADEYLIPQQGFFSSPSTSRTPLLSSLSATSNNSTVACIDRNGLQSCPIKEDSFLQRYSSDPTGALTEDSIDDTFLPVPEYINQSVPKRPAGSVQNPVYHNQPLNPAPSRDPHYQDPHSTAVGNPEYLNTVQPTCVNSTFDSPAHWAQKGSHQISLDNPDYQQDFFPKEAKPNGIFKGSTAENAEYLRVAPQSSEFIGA
# [6] = target: EGFR T790M/L858R kinase domain (Homo sapiens (Human), UniProt P00533, L858R/T790M); assay: EGFR enzymatic assay, TR-FRET, EGFR T790M/L858R
# Sequence of EGFR T790M/L858R kinase domain (P00533 669-1210 T790M/L858R): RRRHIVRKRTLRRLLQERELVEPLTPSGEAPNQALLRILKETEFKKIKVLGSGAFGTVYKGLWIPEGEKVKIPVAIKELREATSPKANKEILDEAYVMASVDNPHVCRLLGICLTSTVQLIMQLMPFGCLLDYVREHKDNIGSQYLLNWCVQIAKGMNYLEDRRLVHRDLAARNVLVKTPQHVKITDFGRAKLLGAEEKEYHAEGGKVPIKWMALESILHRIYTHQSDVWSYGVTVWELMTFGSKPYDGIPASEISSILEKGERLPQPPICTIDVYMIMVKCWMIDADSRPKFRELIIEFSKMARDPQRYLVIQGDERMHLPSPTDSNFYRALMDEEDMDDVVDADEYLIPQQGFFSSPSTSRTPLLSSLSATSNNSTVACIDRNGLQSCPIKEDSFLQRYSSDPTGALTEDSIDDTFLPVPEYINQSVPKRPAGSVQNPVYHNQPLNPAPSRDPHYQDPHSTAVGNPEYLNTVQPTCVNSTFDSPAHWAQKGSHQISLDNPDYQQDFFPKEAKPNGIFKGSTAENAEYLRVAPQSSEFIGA
# [7] = Km ATP ([…] ATP), read-out: IC50 Braf-WT Km ATP
# Sequence of B-Raf (V600E) (P15056 whole entry V600E): as the sequence (P15056 whole entry) above, with V600E counted along it
SMILES,IC50 [1],IC50 [2],"IC50 ([3]; IC50 Braf-WT […] ATP, […] ATP)","IC50 [3, 7]",IC50 [4],IC50 [5],IC50 [6]
"CCN1CCN(Cc2ccc(C(=O)N[C@@H]3[C@H]4Oc5ccc(Oc6ccnc7c6CCC(=O)N7)cc5[C@@H]34)cc2C(F)(F)F)CC1 [Compound 1.1, 4-((4-ethylpiperazin-1-yl)methyl)-N-((1S,1aS,6bS)-5-((7-oxo-5,6,7,8-tetrahydro-1,8-naphthyridin-4-yl)oxy)-1a,6b-dihydro-1H-cyclopropa[b]benzofuran-1-yl)-3-(trifluoromethyl)benzamide]",5.3 nM,0.94 nM,27 nM,9.5 nM,0.5 nM,0.11 nM,0.1 nM
CN1CCN(Cc2ccc(C(=O)N[C@@H]3[C@H]4Oc5ccc(Oc6ccnc7c6CCC(=O)N7)cc5[C@@H]34)cc2C(F)(F)F)CC1 [Compound 1.3],7.1 nM,1.9 nM,36 nM,14 nM,0.7 nM,0.079 nM,0.088 nM
CCN1CCN(Cc2ccc(C(=O)N[C@@H]3[C@H]4Oc5ccc(Oc6ccnc7c6CCC(=O)N7)cc5[C@@H]34)cc2F)CC1 [Compound 1.4],8.1 nM,1.5 nM,31 nM,7.9 nM,1.4 nM,0.46 nM,2.3 nM
CCN1CCN(Cc2cc(C(=O)N[C@@H]3[C@H]4Oc5ccc(Oc6ccnc7c6CCC(=O)N7)cc5[C@@H]34)cc(C(F)(F)F)c2)CC1 [Compound 1.5],12 nM,2.1 nM,39 nM,15 nM,2.3 nM,1 nM,7.1 nM
O=C1CCc2c(Oc3ccc4c(c3)[C@H]3[C@H](NC(=O)c5ccc(CN6CCOCC6)c(C(F)(F)F)c5)[C@H]3O4)ccnc2N1 [Compound 1.7],36 nM,3.5 nM,130 nM,36 nM,9.8 nM,16 nM,54 nM
O=C1CCc2c(Oc3ccc4c(c3)[C@H]3[C@H](NC(=O)c5ccc(CN6CCCCC6)c(C(F)(F)F)c5)[C@H]3O4)ccnc2N1 [Compound 1.8],41 nM,18 nM,380 nM,96 nM,70 nM,100 nM,504 nM
O=C1CCc2c(Oc3ccc4c(c3)[C@H]3[C@H](NC(=O)c5ccc(CN6CCN7CCC[C@@H]7C6)c(C(F)(F)F)c5)[C@H]3O4)ccnc2N1 [Compound 1.12],9 nM,1.3 nM,33 nM,9.4 nM,0.67 nM,0.16 nM,0.21 nM
CN(C)Cc1ccc(C(=O)N[C@@H]2[C@H]3Oc4ccc(Oc5ccnc6c5CCC(=O)N6)cc4[C@@H]23)cc1C(F)(F)F [Compound 1.24],14 nM,1.4 nM,,34 nM,2.7 nM,1.2 nM,8.1 nM
"CC(C)(N)c1cc(C(=O)N[C@@H]2[C@H]3Oc4ccc(Oc5ccnc6c5CCC(=O)N6)cc4[C@@H]23)cc(C(F)(F)F)c1 [Compound 1.25, 3-(2-aminopropan-2-yl)-N-((1S,1aS,6bS)-5-((7-oxo-5,6,7,8-tetrahydro-1,8-naphthyridin-4-yl)oxy)-1a,6b-dihydro-1H-cyclopropa[b]benzofuran-1-yl)-5-(trifluoromethyl)benzamide]",0.71 nM,0.25 nM,3.4 nM,1.4 nM,0.48 nM,0.15 nM,1.2 nM
"NC1(c2cc(C(=O)N[C@@H]3[C@H]4Oc5ccc(Oc6ccnc7c6CCC(=O)N7)cc5[C@@H]34)cc(C(F)(F)F)c2)CC1 [Compound 1.26, 3-(1-aminocyclopropyl)-N-((1S,1aS,6bS)-5-((7-oxo-5,6,7,8-tetrahydro-1,8-naphthyridin-4-yl)oxy)-1a,6b-dihydro-1H-cyclopropa[b]benzofuran-1-yl)-5-(trifluoromethyl)benzamide]",2.2 nM,0.52 nM,,5.7 nM,1.7 nM,1.3 nM,9.4 nM
"O=C1CCc2c(Oc3ccc4c(c3)[C@H]3[C@H](NC(=O)c5ccc(CN6CCNCC6)c(C(F)(F)F)c5)[C@H]3O4)ccnc2N1 [Compound 1.27, N-((1S,1aS,6bS)-5-((7-oxo-5,6,7,8-tetrahydro-1,8-naphthyridin-4-yl)oxy)-1a,6b-dihydro-1H-cyclopropa[b]benzofuran-1-yl)-4-(piperazin-1-ylmethyl)-3-(trifluoromethyl)benzamide]",27.2 nM,3 nM,120 nM,63 nM,1.3 nM,0.31 nM,0.54 nM
"C[C@H]1CN(Cc2ccc(C(=O)N[C@@H]3[C@H]4Oc5ccc(Oc6ccnc7c6CCC(=O)N7)cc5[C@@H]34)cc2C(F)(F)F)CCN1 [Compound 1.29, 4-(((S)-3-methylpiperazin-1-yl)methyl)-N-((1S,1aS,6bS)-5-((7-oxo-5,6,7,8-tetrahydro-1,8-naphthyridin-4-yl)oxy)-1a,6b-dihydro-1H-cyclopropa[b]benzofuran-1-yl)-3-(trifluoromethyl)benzamide]",6.2 nM,1.1 nM,,9.1 nM,0.61 nM,0.14 nM,0.3 nM
"CN(C)[C@@H]1CCCN(Cc2ccc(C(=O)N[C@@H]3[C@H]4Oc5ccc(Oc6ccnc7c6CCC(=O)N7)cc5[C@@H]34)cc2C(F)(F)F)C1 [Compound 1.31, 4-(((R)-3-(dimethylamino)piperidin-1-yl)methyl)-N-((1S,1aS,6bS)-5-((7-oxo-5,6,7,8-tetrahydro-1,8-naphthyridin-4-yl)oxy)-1a,6b-dihydro-1H-cyclopropa[b]benzofuran-1-yl)-3-(trifluoromethyl)benzamide]",15 nM,0.78 nM,,10 nM,0.99 nM,0.44 nM,1.9 nM
CN(C)[C@H]1CCCN(Cc2ccc(C(=O)N[C@@H]3[C@H]4Oc5ccc(Oc6ccnc7c6CCC(=O)N7)cc5[C@@H]34)cc2C(F)(F)F)C1 [Compound 1.32],13 nM,2.5 nM,,21 nM,1.5 nM,0.47 nM,1.3 nM
"CCN1CCN(Cc2ccc(C(=O)N[C@H]3[C@@H]4Oc5ccc(Oc6ccnc7c6CCC(=O)N7)cc5[C@H]34)cc2C(F)(F)F)CC1 [Compound 1.33, 4-((4-ethylpiperazin-1-yl)methyl)-N-((1R,1aR,6bR)-5-((7-oxo-5,6,7,8-tetrahydro-1,8-naphthyridin-4-yl)oxy)-1a,6b-dihydro-1H-cyclopropa [b]benzofuran-1-yl)-3-(trifluoromethyl)benzamide]",16 nM,0.47 nM,,35 nM,774 nM,146 nM,293 nM
O=C1CCc2c(Oc3ccc4c(c3)[C@H]3[C@H](NC(=O)c5cccc(C(F)(F)F)c5)[C@H]3O4)ccnc2N1 [Compound 1.35],1.2 nM,0.33 nM,12 nM,4.4 nM,18 nM,9.7 nM,47 nM
O=C1CCc2c(Oc3ccc4c(c3)[C@H]3[C@H](NC(=O)c5cccc(F)c5)[C@H]3O4)ccnc2N1 [Compound 1.39],0.76 nM,0.15 nM,,0.9 nM,75 nM,30 nM,692 nM
